Data published in patent US20260028365A1 (BIOGEN MA INC., priority 2022, published 2026).
Read-outs that look alike come from different tables or passages of the source.

What was measured:
[1] = target: JH2 domain of human Tyk2 (Homo sapiens (Human), UniProt P29597); assay: JH2 Biochemical Assay (TR-FRET probe displacement); assay type: binding
[2] = target: Tyk2 (Homo sapiens (Human), UniProt P29597); assay: pSTAT4 Cell Assay (MSD, NK92 cells); assay type: cell-based
[3] = JH2 domain of human Tyk2, TR-FRET probe displacement
[4] = TR-FRET probe displacement, JH2 domain of human Tyk2
[5] = TR-FRET probe displacement, JH2 domain

Sequence of Tyk2 (P29597 whole entry, the tested form may be a part): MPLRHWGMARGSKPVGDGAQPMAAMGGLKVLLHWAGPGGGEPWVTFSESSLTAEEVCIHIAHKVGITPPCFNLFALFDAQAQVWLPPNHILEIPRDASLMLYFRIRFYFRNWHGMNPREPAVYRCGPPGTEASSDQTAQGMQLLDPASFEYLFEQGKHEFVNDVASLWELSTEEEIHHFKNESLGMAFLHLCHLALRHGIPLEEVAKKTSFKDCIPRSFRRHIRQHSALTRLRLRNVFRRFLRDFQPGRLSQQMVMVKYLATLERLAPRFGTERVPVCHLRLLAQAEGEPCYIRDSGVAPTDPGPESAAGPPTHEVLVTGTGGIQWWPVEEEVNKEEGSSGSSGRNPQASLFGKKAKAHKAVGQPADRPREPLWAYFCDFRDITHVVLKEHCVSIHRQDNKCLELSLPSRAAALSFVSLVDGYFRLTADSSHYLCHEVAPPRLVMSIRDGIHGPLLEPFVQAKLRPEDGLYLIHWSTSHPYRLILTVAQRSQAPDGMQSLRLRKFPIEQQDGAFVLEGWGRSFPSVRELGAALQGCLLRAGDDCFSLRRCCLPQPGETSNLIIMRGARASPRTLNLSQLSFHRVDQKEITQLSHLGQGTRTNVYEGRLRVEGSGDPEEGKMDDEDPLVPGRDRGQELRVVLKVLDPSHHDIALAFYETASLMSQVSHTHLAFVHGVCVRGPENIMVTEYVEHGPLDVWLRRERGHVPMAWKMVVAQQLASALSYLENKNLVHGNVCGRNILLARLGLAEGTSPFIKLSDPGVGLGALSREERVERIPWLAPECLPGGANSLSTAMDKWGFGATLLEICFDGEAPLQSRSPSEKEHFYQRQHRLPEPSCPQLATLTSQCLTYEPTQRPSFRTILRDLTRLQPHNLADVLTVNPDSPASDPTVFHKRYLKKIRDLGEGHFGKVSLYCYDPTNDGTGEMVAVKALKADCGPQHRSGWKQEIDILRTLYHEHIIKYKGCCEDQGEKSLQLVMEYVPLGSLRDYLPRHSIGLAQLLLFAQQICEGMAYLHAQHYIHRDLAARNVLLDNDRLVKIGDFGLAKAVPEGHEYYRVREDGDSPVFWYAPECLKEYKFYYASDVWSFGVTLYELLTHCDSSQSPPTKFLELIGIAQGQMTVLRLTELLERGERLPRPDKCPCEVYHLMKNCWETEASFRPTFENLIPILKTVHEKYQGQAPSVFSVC
Sequence of JH2 domain of human Tyk2 (P29597 575-876): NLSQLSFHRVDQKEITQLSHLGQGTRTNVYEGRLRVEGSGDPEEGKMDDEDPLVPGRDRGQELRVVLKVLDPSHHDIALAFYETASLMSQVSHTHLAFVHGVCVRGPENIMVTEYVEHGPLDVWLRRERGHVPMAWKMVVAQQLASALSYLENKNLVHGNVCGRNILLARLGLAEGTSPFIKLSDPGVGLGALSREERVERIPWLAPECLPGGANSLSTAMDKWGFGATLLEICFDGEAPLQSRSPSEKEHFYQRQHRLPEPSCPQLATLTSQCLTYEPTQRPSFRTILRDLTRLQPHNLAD

SMILES | IC50 [1, 3] | IC50 ([2]; MSD) | IC50 [1, 4] | IC50 [1, 5] | IC50 [2]
COc1cnc(NC(C)=O)cc1Nc1cc(OC2CC(C#N)C2)nc(C(C)(F)F)n1 (stereo not drawn) [Example 456, N-(4-((6-(3-cyanocyclobutoxy)-2-(1,1-difluoroethyl)pyrimidin-4-yl)amino)-5-methoxypyridin-2-yl)acetamide] | ≤ 10 nM | 10 to 100 nM | – | – | –
CC(=O)Nc1cc(Nc2cc(C)nc(C(C)(F)F)n2)c(OCc2nc(C)c(C)o2)cn1 [Example 338, N-(4-((2-(1,1-difluoroethyl)-6-methylpyrimidin-4-yl)amino)-5-((4,5-dimethyloxazol-2-yl)methoxy)pyridin-2-yl)acetamide] | – | 10 to 100 nM | ≤ 10 nM | – | –
CCc1cc(Nc2cc(NC(C)=O)ncc2-c2ccncn2)nc(C(C)(C)F)n1 [Example 801, N-(4-((6-ethyl-2-(2-fluoropropan-2-yl)pyrimidin-4-yl)amino)-5-(pyrimidin-4-yl)pyridin-2-yl)acetamide] | – | – | – | ≤ 10 nM | ≤ 10 nM
COc1cc(Nc2cc(NC(C)=O)ncc2-c2ncc(F)cn2)nc(C(C)(F)F)n1 [Example 192, N-(4-((2-(1,1-difluoroethyl)-6-methoxypyrimidin-4-yl)amino)-5-(5-fluoropyrimidin-2-yl)pyridin-2-yl)acetamide] | – | 10 to 100 nM | ≤ 10 nM | – | –
COc1cnc(-c2cnc(NC(C)=O)cc2Nc2cc(C)nc(C(C)(F)F)n2)nc1 [Example 656, N-(4-((2-(1,1-difluoroethyl)-6-methylpyrimidin-4-yl)amino)-5-(5-methoxypyrimidin-2-yl)pyridin-2-yl)acetamide] | ≤ 10 nM | ≤ 10 nM | – | – | –
CC(=O)Nc1cc(Nc2cc(C)nc(C(C)(F)F)n2)c(OCC2COC2)cn1 [Example 61, N-(4-((2-(1,1-difluoroethyl)-6-methylpyrimidin-4-yl)amino)-5-(oxetan-3-ylmethoxy)pyridin-2-yl)acetamide] | – | 10 to 100 nM | ≤ 10 nM | – | –
CC(=O)Nc1cc(Nc2cc(C)nc(C(C)(F)F)n2)c(OCCCC2CCCO2)cn1 (stereo not drawn) [Example 434, N-(4-((2-(1,1-difluoroethyl)-6-methylpyrimidin-4-yl)amino)-5-(3-(tetrahydrofuran-2-yl)propoxy)pyridin-2-yl)acetamide] | ≤ 10 nM | 10 to 100 nM | – | – | –
COc1cnc(NC(C)=O)cc1Nc1cc(-c2cccnc2)nc(C(C)(F)F)n1 [Example 388, N-(4-((2-(1,1-difluoroethyl)-6-(pyridin-3-yl)pyrimidin-4-yl)amino)-5-methoxypyridin-2-yl)acetamide] | ≤ 10 nM | 10 to 100 nM | – | – | –
CC(=O)Nc1cc(Nc2cc(C)nc(C(C)(F)F)n2)c(-c2csc(CN3CCN(C)CC3)n2)cn1 [Example 787, N-(4-((2-(1,1-difluoroethyl)-6-methylpyrimidin-4-yl)amino)-5-(2-((4-methylpiperazin-1-yl)methyl)thiazol-4-yl)pyridin-2-yl)acetamide] | – | – | – | ≤ 10 nM | ≤ 10 nM
CC(=O)Nc1cc(Nc2cc(C)nc(C(C)(F)F)n2)c(-n2cc(C)cn2)cn1 [Example 729, N-(4-((2-(1,1-difluoroethyl)-6-methylpyrimidin-4-yl)amino)-5-(4-methyl-1H-pyrazol-1-yl)pyridin-2-yl)acetamide] | ≤ 10 nM | ≤ 10 nM | – | – | –
CC(=O)Nc1cc(Nc2cc(C)nc(C(C)(F)F)n2)c(-c2cccc(N3CCOCC3)n2)cn1 [Example 628, N-(4′-((2-(1,1-difluoroethyl)-6-methylpyrimidin-4-yl)amino)-6-morpholinO[2,3′-bipyridin]-6′-yl)acetamide] | ≤ 10 nM | ≤ 10 nM | – | – | –
CC(=O)Nc1cc(Nc2ccnc(C(C)(F)F)n2)c(-c2ccn3nccc3n2)cn1 [Example 539, N-(4-((2-(1,1-difluoroethyl)pyrimidin-4-yl)amino)-5-(pyrazolo[1,5-a]pyrimidin-5-yl)pyridin-2-yl)acetamide] | ≤ 10 nM | ≤ 10 nM | – | – | –
CC(=O)Nc1cc(Nc2cc(C)nc(C34CC(CO3)C4)n2)c(-c2ccc(COC(F)F)cn2)cn1 [Example 142, N-(4′-((2-(2-oxabicyclo[2.1.1]hexan-1-yl)-6-methylpyrimidin-4-yl)amino)-5-((difluoromethoxy)methyl)-[2,3′-bipyridin]-6′-yl)acetamide] | – | 10 to 100 nM | ≤ 10 nM | – | –
CC(=O)Nc1cc(Nc2cc(C)nc(C(C)(F)F)n2)c(-c2cncc(CN(C)C)n2)cn1 [Example 675, N-(4-((2-(1,1-difluoroethyl)-6-methylpyrimidin-4-yl)amino)-5-(6-((dimethylamino)methyl)pyrazin-2-yl)pyridin-2-yl)acetamide] | ≤ 10 nM | 100 to 1000 nM | – | – | –
CC(=O)Nc1cc(Nc2cc(C)nc(C(C)(F)F)n2)c(-c2csc(CN(C)C)n2)cn1 [Example 786, N-(4-((2-(1,1-difluoroethyl)-6-methylpyrimidin-4-yl)amino)-5-(2-((dimethylamino)methyl)thiazol-4-yl)pyridin-2-yl)acetamide] | – | – | – | ≤ 10 nM | ≤ 10 nM
COCCN(C)c1cnc(-c2cnc(NC(C)=O)cc2Nc2ccnc(C(C)(F)F)n2)cn1 [Example 866, N-(4-((2-(1,1-difluoroethyl)pyrimidin-4-yl)amino)-5-(5-((2-methoxyethyl)(methyl)amino)pyrazin-2-yl)pyridin-2-yl)acetamide] | – | – | – | ≤ 10 nM | 10 to 100 nM
CC(=O)Nc1cc(Nc2cc(C)nc(C(C)(C)F)n2)c(-c2ncc(F)cn2)cn1 [Example 723, N-(4-((2-(2-fluoropropan-2-yl)-6-methylpyrimidin-4-yl)amino)-5-(5-fluoropyrimidin-2-yl)pyridin-2-yl)acetamide] | ≤ 10 nM | 10 to 100 nM | – | – | –
CC(=O)Nc1cc(Nc2cc(C)nc(C(C)(C)F)n2)c(-c2ccn3nccc3n2)cn1 [Example 538, N-(4-((2-(2-fluoropropan-2-yl)-6-methylpyrimidin-4-yl)amino)-5-(pyrazolo[1,5-a]pyrimidin-5-yl)pyridin-2-yl)acetamide] | ≤ 10 nM | ≤ 10 nM | – | – | –
COc1nccc(-c2cnc(NC(C)=O)cc2Nc2ccnc(C(C)(F)F)n2)n1 [Example 178, N-(4-((2-(1,1-difluoroethyl)pyrimidin-4-yl)amino)-5-(2-methoxypyrimidin-4-yl)pyridin-2-yl)acetamide] | – | ≤ 10 nM | ≤ 10 nM | – | –
CC(=O)Nc1cc(Nc2cc(C)nc(C(C)(F)F)n2)c(-c2cc(C(C)(C)N(C)C)n(C)n2)cn1 [Example 802, N-(4-((2-(1,1-difluoroethyl)-6-methylpyrimidin-4-yl)amino)-5-(5-(2-(dimethylamino)propan-2-yl)-1-methyl-1H-pyrazol-3-yl)pyridin-2-yl)acetamide] | – | – | – | ≤ 10 nM | ≤ 10 nM
CC(=O)Nc1cc(Nc2cccc(OC(F)F)n2)c(-c2ccncn2)cn1 [Example 171, N-(4-((6-(difluoromethoxy)pyridin-2-yl)amino)-5-(pyrimidin-4-yl)pyridin-2-yl)acetamide] | – | 100 to 1000 nM | ≤ 10 nM | – | –
CCCn1ccc(-c2cnc(NC(C)=O)cc2Nc2cc(C)nc(C(C)(F)F)n2)n1 [Example 615, N-(4-((2-(1,1-difluoroethyl)-6-methylpyrimidin-4-yl)amino)-5-(1-propyl-1H-pyrazol-3-yl)pyridin-2-yl)acetamide] | ≤ 10 nM | ≤ 10 nM | – | – | –
COc1ccc(-c2cnc(NC(C)=O)cc2Nc2cc(C(C)C)nc(C(C)(F)F)n2)nn1 [Example 832, N-(4-((2-(1,1-difluoroethyl)-6-isopropylpyrimidin-4-yl)amino)-5-(6-methoxypyridazin-3-yl)pyridin-2-yl)acetamide] | – | – | – | ≤ 10 nM | ≤ 10 nM
CC(=O)Nc1cc(Nc2cc(C)nc(C(C)(F)F)n2)c(OCc2noc(C)n2)cn1 [Example 498, N-(4-((2-(1,1-difluoroethyl)-6-methylpyrimidin-4-yl)amino)-5-((5-methyl-1,2,4-oxadiazol-3-yl)methoxy)pyridin-2-yl)acetamide] | ≤ 10 nM | 100 to 1000 nM | – | – | –
CC(=O)Nc1cc(Nc2ccnc(C(C)(C)F)c2)c(-c2ncc(F)cn2)cn1 [Example 216, N-(4-((2-(2-fluoropropan-2-yl)pyridin-4-yl)amino)-5-(5-fluoropyrimidin-2-yl)pyridin-2-yl)acetamide] | – | 100 to 1000 nM | 10 to 100 nM | – | –
CC(=O)Nc1cc(Nc2cc(C)nc(C(C)(F)F)n2)c(OC[C@]23CO[C@](CF)(C2)C3)cn1 [Example 421, N-(4-((2-(1,1-difluoroethyl)-6-methylpyrimidin-4-yl)amino)-5-(((1r,4s)-1-(fluoromethyl)-2-oxabicyclo[2.1.1]hexan-4-yl)methoxy)pyridin-2-yl)acetamide] | ≤ 10 nM | 10 to 100 nM | – | – | –
COc1cc(-c2cnc(NC(C)=O)cc2Nc2ccnc(C(C)(F)F)n2)ncn1 [Example 193, N-(4-((2-(1,1-difluoroethyl)pyrimidin-4-yl)amino)-5-(6-methoxypyrimidin-4-yl)pyridin-2-yl)acetamide] | – | 10 to 100 nM | ≤ 10 nM | – | –
CC(=O)Nc1cc(Nc2cccc(C(C)(F)F)n2)c(-c2ccc(C#N)cn2)cn1 [Example 525, N-(5-cyanO4′-((6-(1,1-difluoroethyl)pyridin-2-yl)amino)-[2,3′-bipyridin]-6′-yl)acetamide] | ≤ 10 nM | 10 to 100 nM | – | – | –
CC(=O)Nc1cc(Nc2cc(C)nc(C(C)(F)F)n2)c(-c2cccc([C@@H]3CN(C)CCO3)n2)cn1 (single isomer, unassigned) [Example 641, (S)-N-(4′-((2-(1,1-difluoroethyl)-6-methylpyrimidin-4-yl)amino)-6-(4-methylmorpholin-2-yl)-[2,3′-bipyridin]-6′-yl)acetamide or (R)-N-(4′-((2-(1,1-difluoroethyl)-6-methylpyrimidin-4-yl)amino)-6-(4-methylmorpholin-2-yl)-[2,3′-bipyridin]-6′-yl)acetamide] | ≤ 10 nM | ≤ 10 nM | – | – | –
CC(=O)Nc1cc(Nc2cc(C)nc(C(C)(F)F)n2)c(-c2ccsn2)cn1 [Example 761, N-(4-((2-(1,1-difluoroethyl)-6-methylpyrimidin-4-yl)amino)-5-(isothiazol-3-yl)pyridin-2-yl)acetamide] | – | – | – | ≤ 10 nM | ≥ 1000 nM
